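Interpolation was linear, between the two tested concentrations surrounding the appropriate level; five concentrations were tested over 48 hours in 96-well plates. At the GI50, growth is halved.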 The source made the active and inactive calls. Rule as the data show it: active = GI50 up to about 1.1 µM and inactive = higher.
Experiments:
Experiment in all cases: growth of human tumour cells (NCI), 48 h
TK-10 = system: TK-10
OVCAR-3 = system: OVCAR-3
NCI-H522 = system: NCI-H522
RPMI-8226 = system: RPMI-8226
UACC-257 = system: UACC-257
HL-60 = system: HL-60
UO-31 = system: UO-31
LOX IMVI = system: LOX IMVI
A549 = system: A549
SF-295 = system: SF-295
DLD-1 = system: DLD-1
SK-MEL-2 = system: SK-MEL-2
HT-29 = system: HT-29
NCI-H23 = system: NCI-H23
SK-MEL-5 = system: SK-MEL-5
M19-MEL = system: M19-MEL
SN12C = system: SN12C
K562 = system: K562
DMS-273 = system: DMS-273
OVCAR-8 = system: OVCAR-8
HCT-15 = system: HCT-15
SNB-19 = system: SNB-19
DMS-114 = system: DMS-114
NCI-H460 = system: NCI-H460
CCRF-CEM = system: CCRF-CEM
MOLT-4 = system: MOLT-4
XF498 = system: XF498
HCT-116 = system: HCT-116
SNB-75 = system: SNB-75
U-251 = system: U-251
786-0 = system: 786-0
NCI-H226 = system: NCI-H226
HOP-18 = system: HOP-18
EKVX = system: EKVX
M14 = system: M14
UACC-62 = system: UACC-62
IGROV-1 = system: IGROV-1
SK-OV-3 = system: SK-OV-3
SF-539 = system: SF-539
KM-20L2 = system: KM-20L2
SK-MEL-28 = system: SK-MEL-28
SW-620 = system: SW-620
ACHN = system: ACHN
HOP-62 = system: HOP-62
Malme-3M = system: Malme-3M
KM12 = system: KM12
RXF 393 = system: RXF 393
COLO 205 = system: COLO 205
SNB-78 = system: SNB-78
SR = system: SR
HCC 2998 = system: HCC 2998
OVCAR-5 = system: OVCAR-5
LXFL 529 = system: LXFL 529
CAKI-1 = system: CAKI-1
SF-268 = system: SF-268
HOP-92 = system: HOP-92
OVCAR-4 = system: OVCAR-4

In the case of C/C(=N\NC(=O)CC(=O)Nc1ccc(C)cc1)c1cc2ccccc2oc1=O, the GI50 (TK-10) is reported as > 100 µM (inactive), the GI50 (OVCAR-3) is reported as > 100 µM (inactive) and the GI50 (NCI-H522) is reported as > 100 µM (inactive). The GI50 (RPMI-8226) was > 100 µM (inactive), the GI50 (UACC-257) was > 100 µM (inactive) and the GI50 (HL-60) was > 100 µM (inactive). For the same molecule, the GI50 (UO-31) was > 100 µM (inactive), the GI50 (LOX IMVI) was > 100 µM (inactive) and the GI50 (A549) was > 100 µM (inactive). For the same molecule, the GI50 (SF-295) was > 100 µM (inactive), the GI50 (DLD-1) was > 100 µM (inactive) and the GI50 (SK-MEL-2) was > 100 µM (inactive). The GI50 (HT-29) was > 100 µM (inactive), the GI50 (NCI-H23) was > 100 µM (inactive) and the GI50 (SK-MEL-5) was > 100 µM (inactive). The GI50 (M19-MEL) was > 100 µM (inactive), the GI50 (SN12C) was > 100 µM (inactive) and the GI50 (K562) was > 100 µM (inactive). For the same molecule, the GI50 (DMS-273) was > 100 µM (inactive), the GI50 (OVCAR-8) was > 100 µM (inactive) and the GI50 (HCT-15) was over 100 µM. For the same molecule, the GI50 (SNB-19) was > 100 µM (inactive), the GI50 (DMS-114) was > 100 µM (inactive) and the GI50 (NCI-H460) was > 100 µM (inactive). The GI50 (CCRF-CEM) was > 100 µM (inactive), the GI50 (MOLT-4) was > 100 µM (inactive) and the GI50 (XF498) was 1.67 µM (inactive). For the same molecule, the GI50 (HCT-116) was > 100 µM (inactive), the GI50 (SNB-75) was 20.2 µM (inactive) and the GI50 (U-251) was > 100 µM (inactive). The GI50 (786-0) was > 100 µM (inactive), the GI50 (NCI-H226) was > 100 µM (inactive) and the GI50 (HOP-18) was 68.2 µM (inactive). For the same molecule, the GI50 (EKVX) was > 100 µM (inactive), the GI50 (M14) was > 100 µM (inactive) and the GI50 (UACC-62) was > 100 µM (inactive). For the same molecule, the GI50 (IGROV-1) was > 100 µM (inactive), the GI50 (SK-OV-3) was > 100 µM (inactive) and the GI50 (SF-539) was > 100 µM (inactive). The GI50 (KM-20L2) was > 100 µM (inactive), the GI50 (SK-MEL-28) was > 100 µM (inactive) and the GI50 (SW-620) was > 100 µM (inactive). The GI50 (ACHN) was > 100 µM (inactive), the GI50 (HOP-62) was > 100 µM (inactive) and the GI50 (Malme-3M) was 38.3 µM (inactive). The GI50 (KM12) was > 100 µM (inactive), the GI50 (RXF 393) was 89.1 µM (inactive) and the GI50 (COLO 205) was > 100 µM (inactive).

COc1ccc(-c2csc(=[N+]3CCCCC3)s2)cc1 was tested, and the GI50 (TK-10) was 29.3 µM (inactive), the GI50 (OVCAR-3) was 3.92 µM (inactive) and the GI50 (NCI-H522) was 1.72 µM (inactive). The GI50 (RPMI-8226) was 2.11 µM (inactive), the GI50 (UACC-257) was 3.34 µM (inactive) and the GI50 (SNB-78) was 3.58 µM (inactive). The GI50 (SR) was 2.26 µM (inactive), the GI50 (HL-60) was 2.29 µM (inactive) and the GI50 (UO-31) was > 100 µM (inactive). The GI50 (LOX IMVI) was 4.83 µM (inactive), the GI50 (HCC 2998) was 3.85 µM (inactive) and the GI50 (A549) was 1.94 µM (inactive). For the same molecule, the GI50 (SF-295) was 1.98 µM (inactive), the GI50 (DLD-1) was 4.79 µM (inactive) and the GI50 (SK-MEL-2) was 3.63 µM (inactive). The GI50 (HT-29) was 3.01 µM (inactive), the GI50 (NCI-H23) was 1.63 µM (inactive) and the GI50 (SK-MEL-5) was 1.87 µM (inactive). The GI50 (M19-MEL) was 2.61 µM (inactive), the GI50 (SN12C) was 3.61 µM (inactive) and the GI50 (K562) was 2.23 µM (inactive). The GI50 (DMS-273) was 3.27 µM (inactive), the GI50 (OVCAR-5) was 8.83 µM (inactive) and the GI50 (OVCAR-8) was 3.05 µM (inactive). For the same molecule, the GI50 (HCT-15) was 47.3 µM, the GI50 (SNB-19) was 1.67 µM (inactive) and the GI50 (LXFL 529) was 3.07 µM (inactive). The GI50 (NCI-H460) was 3.71 µM (inactive), the GI50 (CCRF-CEM) was 1.62 µM (inactive) and the GI50 (MOLT-4) was 2.53 µM (inactive). For the same molecule, the GI50 (XF498) was 4.05 µM (inactive), the GI50 (HCT-116) was 4.42 µM (inactive) and the GI50 (SNB-75) was 1.23 µM (inactive). For the same molecule, the GI50 (U-251) was 0.743 µM (active), the GI50 (786-0) was 4.83 µM (inactive) and the GI50 (CAKI-1) was 2.36 µM (inactive). For the same molecule, the GI50 (NCI-H226) was 2.92 µM (inactive), the GI50 (HOP-18) was 5.15 µM (inactive) and the GI50 (SF-268) was 1.42 µM (inactive). For the same molecule, the GI50 (EKVX) was 6.76 µM (inactive), the GI50 (M14) was 10.9 µM (inactive) and the GI50 (UACC-62) was 7.78 µM (inactive). For the same molecule, the GI50 (IGROV-1) was 4.54 µM (inactive), the GI50 (SK-OV-3) was 3.41 µM (inactive) and the GI50 (SF-539) was 4.56 µM (inactive). For the same molecule, the GI50 (KM-20L2) was 2.66 µM (inactive), the GI50 (SK-MEL-28) was 6 µM (inactive) and the GI50 (SW-620) was 2.88 µM (inactive). The GI50 (ACHN) was 9.44 µM (inactive), the GI50 (HOP-92) was 2.38 µM (inactive) and the GI50 (HOP-62) was 2.54 µM (inactive). For the same molecule, the GI50 (OVCAR-4) was 4.48 µM (inactive), the GI50 (Malme-3M) was 2.76 µM (inactive) and the GI50 (KM12) was 2.36 µM (inactive). The GI50 (RXF 393) was 4.14 µM (inactive) and the GI50 (COLO 205) was 1.49 µM (inactive).
